Results as given in US10519148B2, “Acrylic acid derivative, preparation method and use in medicine thereof” (Zhejiang Hisun Pharmaceutical Co., Ltd., priority 2015, dated 2019).

Tests used:
ERα = target: T1, ERα (Homo sapiens, UniProt P03372); test: ERα down-regulation immunofluorescence assay in MCF-7 cells; assay type: cell-based; conditions: immunofluorescence of ERα level, read-out: IC50 (nM) ERα down-degradation
T1 construct: host or cells: MCF-7
T1 sequence (P03372 1-595): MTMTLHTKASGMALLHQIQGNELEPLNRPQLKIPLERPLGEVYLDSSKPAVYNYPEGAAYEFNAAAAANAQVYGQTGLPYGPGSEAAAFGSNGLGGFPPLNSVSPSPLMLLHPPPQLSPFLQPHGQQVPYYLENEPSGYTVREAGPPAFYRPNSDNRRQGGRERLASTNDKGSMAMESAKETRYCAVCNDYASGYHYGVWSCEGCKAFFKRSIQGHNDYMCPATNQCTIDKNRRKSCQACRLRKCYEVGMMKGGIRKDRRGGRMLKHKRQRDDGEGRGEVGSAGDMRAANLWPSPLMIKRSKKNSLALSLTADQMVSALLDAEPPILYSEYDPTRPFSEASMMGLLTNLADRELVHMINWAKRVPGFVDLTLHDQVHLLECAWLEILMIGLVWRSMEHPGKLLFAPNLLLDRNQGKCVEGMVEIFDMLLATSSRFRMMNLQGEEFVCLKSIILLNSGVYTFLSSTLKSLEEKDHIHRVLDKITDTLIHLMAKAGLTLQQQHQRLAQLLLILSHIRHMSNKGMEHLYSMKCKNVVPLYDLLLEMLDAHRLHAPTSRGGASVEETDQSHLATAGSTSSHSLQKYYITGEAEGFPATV
Protocol: The down-regulation of the preferred compounds of the present invention on the protein level of ERα is evaluated by immunofluorescence assay using human breast cancer cell line MCF-7. MCF-7 cells used in the experiment were revived directly from frozen cells (about 5×10^6). The MCF-7 frozen cell line (Sigma D5921) purchased from Sigma was stored in DMEM medium containing 2 mM […]. 5% (v/v) Charcoal/Dextran-treated bovine serum […] were added to the revived MCF-7 cells and the cell concentration was determined using Coulter Counter.
The cells used for the test were diluted to 3.75×10^4 cells/mL with culture medium and 40 μL/well of the above cell suspension was transferred to 384-well black transparent bottom plates and incubated overnight at 37° C., 5% CO2. 10 mM compound stock solutions were diluted to a series of test concentrations (10 mM, 0.1 mM, 1 μM, 0.01 μM etc.) and dispensed into cell plates. 20 μL of 11.1% (v/v) aqueous formaldehyde solution (phosphate buffered saline) was added to each of the different concentrations of the test compounds and MCF-7 cell culture solution (40 μL), and the final concentration of formaldehyde in the solution was 3.7% (v/v). Cells were fixed at room temperature for 20 minutes, washed twice with 250 μL of PBS/Proclin, and then 40 μL of PBS/Proclin was added and refrigerated at 4° C. The immunostaining of the protein was performed using the automated AutoElisa kit. The PBS/Proclin solution was aspirated from each plate well and then 40 μL of PBS containing 0.5% Tween 20 (v/v) was added for cell permeation. After one hour, the plate was washed with 250 μL of PBS/0.05% Tween 20/Proclin for three times, and 20 μL of ERα rabbit monoclonal antibody (Thermofisher) in PBS/Tween™ 20/3% (w/v) BSA solution (1:1000) was added. The plates were incubated overnight at 4° C., washed three times with 250 μL of PBS/Tween™ 20/Proclin, and then 20 μL of goat anti-rabbit IgG AlexaFluor 594 or goat anti-rabbit IgG AlexaFluor 488 antibody (containing Hoechst stain (1:5000) in PBS/Tween™ 20/3% (w/v) BSA solution was added, and the system was incubated at room temperature for one hour. After the plates were washed three times with 250 μL of PBS/0.05% (v/v) Tween™ 20/Proclin, 20 μL of PBS was added and the paltes were kept in dark place at 4° C. The level of estrogen receptor ERα in MCF-7 cells was calculated through Cellomics Arrayscan detection of fluorescence emission intensity at two emission wave bands at 594 nm (24-hour time point) and 488 nm (5-hour time point). The average fluorescence emission intensity of each cell is positively correlated with the ERα receptor level of the cell. The primitive fluorescence data was used to obtain the fitting curve by software such as Origin or Genedata. Half maximal inhibitory concentration IC50 was used to characterize the down-regulation of estrogen receptor ERα by the test compounds, which is the concentration of the test compound when the fluorescence emission intensity is reduced to 50% of the average maximum fluorescence intensity.

[1] = tested on: MCF-7 human breast cancer cell line; test: Inhibition of MCF-7 cell proliferation (CCK-8); assay type: cell-based; conditions: MCF7, MCF-7 cells, 72 hours
Protocol: 1. Reagents and Consumables
Cell Counting Reagent Kit 8 (Cell Counting Kit-8, Cat# CK04-13, Dojindo);
96-well culture plate (Cat #3599, Corning Costar);
Medium and fetal bovine serum (GIBCO);
Desktop Microplate Reader (SpectraMax M5 Microplate Reader, Molecular Devices);
MCF-7 human breast cancer cell line (purchased from Shanghai cell resource center, Chinese Academy of Sciences).
2. Preparation of Reagents
Preparation of culture medium: MEM+10% FBS+0.01 mg/ml Human recombinant insulin; Preparation of the compound: The compounds were diluted with DMSO to a final concentration of 10 mM;
(1) The logarithmic growth phase cells were collected, counted, resuspended the cells with complete culture medium. The cells were adjusted to the appropriate concentration (determined according to the cell density optimization test results) and inoculated into 96-well plates, 100 μL of cell suspension per well. The cells were incubated in an incubator for 24 hours at 37° C. with 100% relative humidity, 5% CO2; […]
(5) The absorbance at 450 nm wavelength was measured on a SpectraMax M5 Microplate Reader after gently shaking. The inhibition rate was calculated using the absorbance at 650 nm as a reference. […]

Row | SMILES | DC50 (ERα) [nM] | IC50 [1] [nM]
1 | C[C@@H]1Cc2c([nH]c3ccccc23)[C@@H](c2c(F)cc(/C=C/C(=O)O)cc2F)N1CC1(F)CC1 [Example 1, (E)-3-(3,5-difluoro-4-((1R,3R)-2-((1-fluorocyclopropyl)methyl)-3-methyl-2,3,4,9-tetrahydro-1H-pyrido[3,4-b]indol-1-yl)phenyl)acrylic acid] | 0.1 to 10 | 0.34
2 | C[C@@H]1Cc2c([nH]c3cccc(F)c23)[C@@H](c2c(F)cc(/C=C/C(=O)O)cc2F)N1CC1(F)CC1 [Example 12, (E)-3-(3,5-difluoro-4-((1R,3R)-5-fluoro-2-((1-fluorocyclopropyl)methyl)-3-methyl-2,3,4,9-tetrahydro-1H-pyrido[3,4-b]indol-1-yl)phenyl)acrylic acid] | 0.1 to 10 | 1.45
